{
  "source": "paper PMC10764907",
  "about": "“Aryl-quinoline-4-carbonyl hydrazone bearing different 2-methoxyphenoxyacetamides as potent α-glucosidase inhibitors; molecular dynamics, kinetic and structure–activity relationship studies” (Scientific Reports, 2024)",
  "key": {"α-glucosidase [1]": {"biological_target": "T1, α-glucosidase (Saccharomyces cerevisiae, UniProt P53341)", "T1 sequence (P53341 whole entry)": "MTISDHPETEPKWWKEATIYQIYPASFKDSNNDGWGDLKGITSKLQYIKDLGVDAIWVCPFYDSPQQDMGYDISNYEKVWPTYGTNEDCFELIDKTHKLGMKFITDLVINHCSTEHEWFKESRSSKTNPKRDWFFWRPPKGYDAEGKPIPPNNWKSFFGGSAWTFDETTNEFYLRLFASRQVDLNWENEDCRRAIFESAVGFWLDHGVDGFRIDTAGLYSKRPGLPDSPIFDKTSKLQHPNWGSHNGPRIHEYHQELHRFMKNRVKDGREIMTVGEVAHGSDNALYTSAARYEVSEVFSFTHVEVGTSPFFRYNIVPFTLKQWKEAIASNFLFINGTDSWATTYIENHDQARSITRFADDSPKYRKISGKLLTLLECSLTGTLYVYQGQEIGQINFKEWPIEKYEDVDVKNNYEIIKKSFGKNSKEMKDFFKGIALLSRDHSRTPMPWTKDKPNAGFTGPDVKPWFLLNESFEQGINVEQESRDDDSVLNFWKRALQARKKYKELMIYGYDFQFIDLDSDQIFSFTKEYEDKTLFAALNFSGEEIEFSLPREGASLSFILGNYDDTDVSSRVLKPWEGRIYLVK", "test": "biochemical", "type": "biochemical", "settings": "for IC50: α-glucosidase inhibition, mean ± SD"}, "[2]": {"test": "Concentrations of precipitation in the α-glucosidase inhibition assay", "type": "physicochemical", "source_text": "Table 1 The α-glucosidase inhibition assay of 11a–o. | column: Concentrations of precipitation (µM)"}, "α-glucosidase [3]": {"biological_target": "T1, α-glucosidase", "settings": "cited from earlier work; for IC50: Fig. 1"}, "α-glucosidase [4]": {"biological_target": "T1, α-glucosidase", "test": "Enzyme kinetic studies (Lineweaver–Burk plot, secondary plot)", "type": "biochemical", "source_text": "This pattern indicates a competitive inhibition mechanism. […] Additionally, by plotting the Km values against different inhibitor concentrations, an estimation of the inhibition constant (Ki) was obtained."}, "α-amylase": {"tested_on": "α-amylase", "set-up": "method as in doi:10.1016/j.molstruc.2022.133650", "settings": "at 108 μM; cited from earlier work"}, "[5]": {"settings": "previously reported quinoline inhibitors"}},
  "note": "Read-outs that look alike come from different tables or passages of the source.",
  "data": [
    {"smiles": "CCc1ccc(NC(=O)COc2ccc(C=NNC(=O)c3cc(-c4ccccc4)nc4ccccc34)cc2OC)cc1", "note": "[11d, N-(4-ethylphenyl)-2-(2-methoxy-4-((2-(2-phenylquinoline-4-carbonyl)hydrazono)methyl)phenoxy)acetamide]", "values": [
      {"measurement": "IC50", "setting": "α-glucosidase [1]", "result": "156.8 ± 1.5", "unit": "µM"},
      {"measurement": "Concentrations of precipitation", "setting": "[2]", "result": "≥ 375", "unit": "µM"},
      {"measurement": "melting point", "result": "> 250", "unit": "°C"}
    ]},
    {"smiles": "O=C(CSc1nc2ccccc2cc1-c1nc2ccccc2[nH]1)Nc1ccc2ccccc2c1", "note": "[C]", "values": [
      {"measurement": "IC50", "setting": "α-glucosidase [3]", "result": 3.2, "unit": "µM"}
    ]},
    {"smiles": "COc1ccc(NC(=O)COc2ccc(C=NNC(=O)c3cc(-c4ccccc4)nc4ccccc34)cc2OC)cc1", "note": "[11c, 2-(2-methoxy-4-((2-(2-phenylquinoline-4-carbonyl)hydrazineylidene)methyl)phenoxy)-N-(4-methoxyphenyl)acetamide]", "values": [
      {"measurement": "IC50", "setting": "α-glucosidase [1]", "result": "43.7 ± 1", "unit": "µM"},
      {"measurement": "melting point", "result": "> 250", "unit": "°C"}
    ]},
    {"smiles": "COc1cc(C=NNC(=O)c2cc(-c3ccccc3)nc3ccccc23)ccc1OCC(=O)Nc1ccccc1C", "note": "[11a, 2-(2-methoxy-4-((2-(2-phenylquinoline-4-carbonyl)hydrazineylidene)methyl)phenoxy)-N-(o-tolyl)acetamide]", "values": [
      {"measurement": "IC50", "setting": "α-glucosidase [1]", "result": "34.8 ± 1.1", "unit": "µM"},
      {"measurement": "melting point", "result": "> 250", "unit": "°C"}
    ]},
    {"smiles": "COc1ccc(NC(=O)COc2ccc(C=NNC(=O)c3cc(-c4ccc(OC)cc4)nc4ccccc34)cc2OC)cc1", "note": "[11j, 2-(2-methoxy-4-((2-(2-(4-methoxyphenyl)quinoline-4-carbonyl)hydrazono)methyl)phenoxy)-N-(4-methoxyphenyl)acetamide]", "values": [
      {"measurement": "IC50", "setting": "α-glucosidase [1]", "result": "61.8 ± 0.5", "unit": "µM"},
      {"measurement": "Concentrations of precipitation", "setting": "[2]", "result": "≥ 190", "unit": "µM"},
      {"measurement": "melting point", "result": "> 250", "unit": "°C"}
    ]},
    {"smiles": "COc1cc(/C=N/NC(=O)CC#N)ccc1OCc1cn(Cc2ccc(Cl)cc2)nn1", "note": "[G]", "values": [
      {"measurement": "IC50", "setting": "α-glucosidase [3]", "result": 1, "unit": "µM"}
    ]},
    {"smiles": "COc1cc(C=NNC(=O)c2cc(-c3ccccc3)nc3ccccc23)ccc1OCC(=O)Nc1ccc(Cl)cc1", "note": "[11f, N-(4-chlorophenyl)-2-(2-methoxy-4-((2-(2-phenylquinoline-4-carbonyl)hydrazono)methyl)phenoxy)acetamide]", "values": [
      {"measurement": "IC50", "setting": "α-glucosidase [1]", "result": "> 750", "unit": "µM"},
      {"measurement": "Concentrations of precipitation", "setting": "[2]", "result": "≥ 375", "unit": "µM"},
      {"measurement": "melting point", "result": "> 250", "unit": "°C"}
    ]},
    {"smiles": "COc1ccc(-c2nc3cc(C(=O)N/N=C/c4ccc(O)c(OC)c4)ccc3[nH]2)cc1", "note": "[F]", "values": [
      {"measurement": "IC50", "setting": "α-glucosidase [3]", "result": 60.1, "unit": "µM"}
    ]},
    {"smiles": "COc1ccc(-c2cc(C(=O)NN=Cc3ccc(OCC(=O)Nc4ccc(F)cc4)c(OC)c3)c3ccccc3n2)cc1", "note": "[11l, N-(4-fluorophenyl)-2-(2-methoxy-4-((2-(2-(4-methoxyphenyl)quinoline-4-carbonyl)hydrazono)methyl)phenoxy)acetamide]", "values": [
      {"measurement": "IC50", "setting": "α-glucosidase [1]", "result": "> 750", "unit": "µM"},
      {"measurement": "Concentrations of precipitation", "setting": "[2]", "result": "≥ 190", "unit": "µM"},
      {"measurement": "melting point", "result": "> 250", "unit": "°C"}
    ]},
    {"smiles": "O=C(NCCCC1OC(CO)C(O)C(O)C1O)c1cc(-c2ccccc2)nc2ccccc12", "note": "(centres unmarked) [D]", "values": [
      {"measurement": "IC50", "setting": "α-glucosidase [3]", "result": 7.98, "unit": "µM"}
    ]},
    {"smiles": "O=C(O)c1ccc2ccccc2n1", "note": "[A]", "values": [
      {"measurement": "IC50", "setting": "α-glucosidase [3]; [5]", "result": 9.1, "unit": "µM"}
    ]},
    {"smiles": "COc1ccc(-c2cc(C(=O)NN=Cc3ccc(OCC(=O)Nc4ccc([N+](=O)[O-])cc4)c(OC)c3)c3ccccc3n2)cc1", "note": "[11o, 2-(2-methoxy-4-((2-(2-(4-methoxyphenyl)quinoline-4-carbonyl)hydrazono)methyl)phenoxy)-N-(4-nitrophenyl)acetamide]", "values": [
      {"measurement": "IC50", "setting": "α-glucosidase [1]", "result": "459.8 ± 1.5", "unit": "µM"},
      {"measurement": "melting point", "result": "> 250", "unit": "°C"}
    ]},
    {"smiles": "COc1ccc(-c2cc(C(=O)NN=Cc3ccc(OCC(=O)Nc4ccc(Br)cc4)c(OC)c3)c3ccccc3n2)cc1", "note": "[11m, N-(4-bromophenyl)-2-(2-methoxy-4-((2-(2-(4-methoxyphenyl)quinoline-4-carbonyl)hydrazono)methyl)phenoxy)acetamide]", "values": [
      {"measurement": "IC50", "setting": "α-glucosidase [1]", "result": "152 ± 1.7", "unit": "µM"},
      {"measurement": "Concentrations of precipitation", "setting": "[2]", "result": "≥ 190", "unit": "µM"},
      {"measurement": "melting point", "result": "> 250", "unit": "°C"}
    ]},
    {"smiles": "COc1ccc(-c2cc(C(=O)NN=Cc3ccc(OCC(=O)Nc4ccccc4C)c(OC)c3)c3ccccc3n2)cc1", "note": "[11i, 2-(2-methoxy-4-((2-(2-(4-methoxyphenyl)quinoline-4-carbonyl)hydrazono)methyl)phenoxy)-N-(o-tolyl)acetamide]", "values": [
      {"measurement": "IC50", "setting": "α-glucosidase [1]", "result": "71.2 ± 0.6", "unit": "µM"},
      {"measurement": "melting point", "result": "> 250", "unit": "°C"}
    ]},
    {"smiles": "COc1ccc(-c2cc(C(=O)NN=Cc3ccc(OCC(=O)Nc4ccccc4)c(OC)c3)c3ccccc3n2)cc1", "note": "[11h, 2-(2-methoxy-4-((2-(2-(4-methoxyphenyl)quinoline-4-carbonyl)hydrazono)methyl)phenoxy)-N-phenylacetamide]", "values": [
      {"measurement": "fold more potent vs positive control", "setting": "α-glucosidase [1]; vs acarbose", "result": "more than 11 fold"},
      {"measurement": "IC50", "setting": "α-glucosidase [1]", "result": "62.4 ± 0.9", "unit": "µM"},
      {"measurement": "Concentrations of precipitation", "setting": "[2]", "result": "≥ 375", "unit": "µM"},
      {"measurement": "melting point", "result": "> 250", "unit": "°C"}
    ]},
    {"smiles": "COc1cc(C=NNC(=O)c2cc(-c3ccccc3)nc3ccccc23)ccc1OCC(=O)Nc1ccc(Br)cc1", "note": "[11g, N-(4-bromophenyl)-2-(2-methoxy-4-((2-(2-phenylquinoline-4-carbonyl)hydrazineylidene)methyl)phenoxy)acetamide]", "values": [
      {"measurement": "IC50", "setting": "α-glucosidase [1]", "result": "180.9 ± 1.7", "unit": "µM"},
      {"measurement": "Concentrations of precipitation", "setting": "[2]", "result": "≥ 375", "unit": "µM"},
      {"measurement": "melting point", "result": "> 250", "unit": "°C"}
    ]},
    {"smiles": "COc1ccc(-c2cc(C(=O)NN=Cc3ccc(OCC(=O)Nc4ccc(Cl)cc4)c(OC)c3)c3ccccc3n2)cc1", "note": "[11n, N-(4-chlorophenyl)-2-(2-methoxy-4-((2-(2-(4-methoxyphenyl)quinoline-4-carbonyl)hydrazono)methyl)phenoxy)acetamide]", "values": [
      {"measurement": "IC50", "setting": "α-glucosidase [1]", "result": "48.7 ± 0.9", "unit": "µM"},
      {"measurement": "Concentrations of precipitation", "setting": "[2]", "result": "≥ 190", "unit": "µM"},
      {"measurement": "melting point", "result": "> 250", "unit": "°C"}
    ]},
    {"smiles": "O=C(O)c1cnc2ccccc2c1", "note": "[B]", "values": [
      {"measurement": "IC50", "setting": "α-glucosidase [3]; [5]", "result": 10.6, "unit": "µM"}
    ]},
    {"smiles": "COc1cc(-c2nc3ccccc3c(=O)[nH]2)ccc1OCC(=O)Nc1ccccc1F", "note": "[J]", "values": [
      {"measurement": "IC50", "setting": "α-glucosidase [3]", "result": 14.4, "unit": "µM"}
    ]},
    {"smiles": "COc1cc(C=NNC(=O)c2cc(-c3ccccc3)nc3ccccc23)ccc1OCC(=O)Nc1ccc(F)cc1", "note": "[11e, N-(4-fluorophenyl)-2-(2-methoxy-4-((2-(2-phenylquinoline-4-carbonyl)hydrazono)methyl)phenoxy)acetamide]", "values": [
      {"measurement": "IC50", "setting": "α-glucosidase [1]", "result": "52.6 ± 0.6", "unit": "µM"},
      {"measurement": "melting point", "result": "> 250", "unit": "°C"}
    ]},
    {"smiles": "CCc1ccc(NC(=O)COc2ccc(C=NNC(=O)c3cc(-c4ccc(OC)cc4)nc4ccccc34)cc2OC)cc1", "note": "[11k, N-(4-ethylphenyl)-2-(2-methoxy-4-((2-(2-(4-methoxyphenyl)quinoline-4-carbonyl)hydrazono)methyl)phenoxy)acetamide]", "values": [
      {"measurement": "IC50", "setting": "α-glucosidase [1]", "result": "26 ± 0.8", "unit": "µM"},
      {"measurement": "Ki", "setting": "α-glucosidase [4]", "result": 25.6, "unit": "µM"},
      {"measurement": "mode of inhibition", "setting": "α-glucosidase [4]; Lineweaver–Burk plot", "result": "competitive"},
      {"measurement": "melting point", "result": "> 250", "unit": "°C"}
    ]},
    {"smiles": "COc1cc(C=NNC(=O)c2cc(-c3ccccc3)nc3ccccc23)ccc1OCC(=O)Nc1ccc(C)cc1", "note": "[11b, 2-(2-methoxy-4-((2-(2-phenylquinoline-4-carbonyl)hydrazono)methyl)phenoxy)-N-(p-tolyl)acetamide]", "values": [
      {"measurement": "IC50", "setting": "α-glucosidase [1]", "result": "95.2 ± 1.2", "unit": "µM"},
      {"measurement": "Concentrations of precipitation", "setting": "[2]", "result": "≥ 375", "unit": "µM"},
      {"measurement": "melting point", "result": "> 250", "unit": "°C"}
    ]},
    {"smiles": "O=C(N/N=C/c1cccc(F)c1)c1ccc2nc(-c3ccccc3)c(-c3ccccc3)nc2c1", "note": "[E]", "values": [
      {"measurement": "IC50", "setting": "α-glucosidase [3]", "result": 111, "unit": "µM"}
    ]},
    {"smiles": "COc1cc(-c2nc3ccccc3[nH]2)ccc1OCC(=O)Nc1ccc(F)cc1", "note": "[I]", "values": [
      {"measurement": "IC50", "setting": "α-glucosidase [3]", "result": 99.6, "unit": "µM"},
      {"measurement": "Ki", "setting": "α-glucosidase [3]", "result": 67, "unit": "µM"},
      {"measurement": "mode of inhibition", "setting": "α-glucosidase [3]", "result": "competitive"},
      {"measurement": "α-amylase inhibition", "setting": "α-amylase", "result": "45.0 ± 0.8", "unit": "%"}
    ]},
    {"smiles": "CCc1ccc(NC(=O)Cn2cc(COc3ccc(-c4nc5ccccc5[nH]4)cc3)nn2)cc1", "note": "[H]", "values": [
      {"measurement": "Ki", "setting": "α-glucosidase [3]", "result": 23, "unit": "µM"},
      {"measurement": "mode of inhibition", "setting": "α-glucosidase [3]", "result": "competitive"}
    ]}
  ]
}
